In the supplement of paper PMC10307832:

Key:
Assay in all cases: relative viability (nuclei count vs DMSO), 5 days (fraction); higher = more cells survive
Sulindac + Luminespib = compound: CC1=C(CC(=O)O)c2cc(F)ccc2/C1=C\c1ccc([S+](C)[O-])cc1 [Sulindac] + CCNC(=O)c1noc(-c2cc(C(C)C)c(O)cc2O)c1-c1ccc(CN2CCOCC2)cc1 [Luminespib] (partner 0.01 µM)
Method in brief: (§1)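 Relative viability was taken as the ratio of nuclei in treated wells to nuclei in vehicle wells. Lung cancer cell lines in 1536-well plates received compounds by pin tool one day after seeding, either one drug alone or a fixed anchor-drug dose plus five library-drug doses (not always all listed) in √10 steps. Nuclei were counted on 4× images after 5 days of treatment, and values are medians of duplicate plates.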

[1] = compound: CN[C@@H]1C[C@H]2O[C@@](C)([C@@H]1OC)n1c3ccccc3c3c4c(c5c6ccccc6n2c5c31)C(=O)NC4 [Staurosporine] + O=C(CCCCCCC(=O)Nc1ccccc1)NO [Vorinostat] (partner 1 µM)
Method in brief: as §1

[2] = compound: O=c1[nH]cc(F)c(=O)[nH]1 [5-Fluorouracil] + CC(C)C[C@H](NC(=O)[C@H](Cc1ccccc1)NC(=O)c1cnccn1)B(O)O [Bortezomib] (partner 0.002 µM)
Method in brief: as §1

[3] = compound: CN[C@@H]1C[C@H]2O[C@@](C)([C@@H]1OC)n1c3ccccc3c3c4c(c5c6ccccc6n2c5c31)C(=O)NC4 [Staurosporine] + Nc1ncn([C@H]2C[C@H](O)[C@@H](CO)O2)c(=O)n1 [Decitabine] (partner 2 µM)
Method in brief: as §1

| Cell Line | relative viability (Sulindac + Luminespib; first compound 0.08 µM) | relative viability (Sulindac + Luminespib; first compound 0.253 µM) | relative viability (Sulindac + Luminespib; first compound 0.8 µM) | relative viability (Sulindac + Luminespib; first compound 2.53 µM) | relative viability (Sulindac + Luminespib; first compound 8 µM) | relative viability ([1]; first compound 0.005 µM) | relative viability ([1]; first compound 0.01581 µM) | relative viability ([1]; first compound 0.05 µM) | relative viability ([1]; first compound 0.1581 µM) | relative viability ([1]; first compound 0.5 µM) | relative viability ([2]; first compound 0.02 µM) | relative viability ([2]; first compound 0.2 µM) | relative viability ([2]; first compound 0.6325 µM) | relative viability ([2]; first compound 2 µM) | relative viability ([3]; first compound 0.005 µM) | relative viability ([3]; first compound 0.01581 µM) | relative viability ([3]; first compound 0.05 µM) | relative viability ([3]; first compound 0.1581 µM) | relative viability ([3]; first compound 0.5 µM) |
| --- | --- | --- | --- | --- | --- | --- | --- | --- | --- | --- | --- | --- | --- | --- | --- | --- | --- | --- | --- |
| HCC-827 | 0.566 | 0.916 | 0.475 | 0.606 | 0.412 | 0.866 | 0.772 | 0.384 | 0.174 | 0.183 | 0.805 | 1.1 | 0.733 | 0.596 | 0.34 | 0.274 | 0.288 | 0.211 | 0.189 |
| HOP-62 | 1.34 | 0.974 | 0.708 | 0.977 | 0.942 | 0.168 | 0.0742 | 0.1 | 0.0731 | 0.0573 | 0.85 | 0.891 | 0.859 | 0.558 | 0.219 | 0.289 | 0.19 | 0.131 | 0.126 |
| LC-2-ad | 1.03 | 0.947 | 1.07 | 0.994 | 1.18 | 0.635 | 0.158 | 0.217 | 0.13 | 0.0772 | 1.01 | 0.914 | 0.598 | 0.276 | 0.765 | 0.695 | 0.623 | 0.167 | 0.166 |
| LCLC-97TM1 | 0.978 | 0.847 | 0.673 | 0.644 | 0.876 | 0.334 | 0.0752 | 0.205 | 0.113 | 0.0631 | 0.53 | 1.03 | 0.396 | 0.12 | 0.257 | 0.198 | 0.217 | 0.217 | 0.223 |
| LCLC-103H | 1.21 | 1.09 | 0.751 | 0.886 | 0.996 | 0.545 | 0.16 | 0.251 | 0.211 | 0.198 | 0.99 | 1.18 | 0.931 | 0.632 | 0.753 | 0.484 | 0.34 | 0.299 | 0.278 |
| LOU-NH91 | 0.322 | 0.322 | 0.314 | 0.328 | 0.401 | 0.859 | 0.405 | 0.61 | 0.267 | 0.294 | 0.522 | 0.559 | 0.37 | 0.36 | 0.788 | 0.607 | 0.624 | 0.4 | 0.314 |
| LU99A | 0.164 | 0.315 | 0.196 | 0.243 | 0.263 | 0.452 | 0.16 | 0.173 | 0.128 | 0.107 | 1.08 | 1.14 | 1.01 | 0.593 | 0.934 | 0.672 | 0.513 | 0.341 | 0.198 |
| LXF-289 | 0.821 | 0.847 | 0.58 | 0.715 | 0.611 | 0.73 | 0.249 | 0.29 | 0.0781 | 0.0815 | 0.99 | 0.712 | 0.312 | 0.282 | 0.445 | 0.266 | 0.31 | 0.18 | 0.206 |
| NCI-H23 | 0.174 |  |  | 0.234 | 0.243 | 0.506 | 0.0921 | 0.0962 | 0.143 | 0.101 | 1.07 | 1.34 | 0.598 | 0.309 | 0.309 | 0.213 | 0.203 | 0.163 | 0.161 |
| NCI-H322M | 0.887 | 0.819 | 0.644 | 0.848 | 0.881 | 0.581 | 0.424 | 0.451 | 0.405 | 0.398 | 1.44 | 1.17 | 1.03 | 0.652 | 0.667 | 0.49 | 0.529 | 0.475 | 0.49 |
| NCI-H441 | 0.345 | 0.326 | 0.352 | 0.239 | 0.289 | 0.458 | 0.327 | 0.232 | 0.144 | 0.114 | 0.513 | 0.408 | 0.482 | 0.303 | 0.226 | 0.192 | 0.238 | 0.129 | 0.0673 |
| NCI-H460 | 0.0451 | 0.0347 | 0.0378 | 0.0255 | 0.0267 |  | 0.179 | 0.0234 | 0.0138 | 0.0076 | 1.34 | 0.488 | 0.141 | 0.0496 | 0.397 | 0.308 | 0.175 | 0.0228 | 0.0211 |
| NCI-H520 | 0.21 | 0.204 | 0.246 | 0.228 | 0.199 | 0.726 | 0.498 | 0.384 | 0.191 | 0.148 | 0.587 | 0.438 | 0.382 | 0.312 | 0.527 | 0.465 | 0.392 | 0.188 | 0.161 |
| NCI-H596 | 1.08 | 0.99 | 0.915 | 1 | 0.993 | 0.59 | 0.424 | 0.258 | 0.192 | 0.126 | 1.14 | 0.794 | 0.694 | 0.597 | 1.01 | 0.885 | 0.712 | 0.366 | 0.504 |
| NCI-H647 | 0.187 | 0.125 | 0.169 | 0.122 | 0.134 | 0.247 | 0.117 | 0.0686 | 0.0506 | 0.0527 | 0.925 | 1.15 | 0.992 | 0.61 | 0.379 | 0.247 | 0.266 | 0.0707 | 0.062 |
| NCI-H650 | 0.796 | 0.87 | 0.659 | 0.644 | 0.935 | 0.32 | 0.162 | 0.234 | 0.181 | 0.151 | 0.894 | 0.622 | 0.517 | 0.529 | 0.343 | 0.411 | 0.258 | 0.235 | 0.188 |
| NCI-H661 | 0.969 | 0.97 | 0.852 | 0.9 | 0.957 | 0.854 | 0.695 | 0.523 | 0.239 | 0.179 | 0.669 | 0.816 | 0.759 | 0.804 | 0.555 | 0.484 | 0.436 | 0.267 | 0.186 |
| NCI-H727 | 0.223 | 0.338 |  | 0.299 | 0.443 | 1.36 | 0.831 | 0.453 | 0.36 | 0.322 | 1 | 1.01 | 0.776 | 0.782 | 0.859 | 0.587 | 0.432 | 0.393 | 0.316 |
| NCI-H838 | 0.231 | 0.277 | 0.243 | 0.211 | 0.307 | 0.36 | 0.217 | 0.142 | 0.171 |  | 0.732 | 0.794 | 0.637 | 0.281 | 0.368 | 0.271 | 0.181 | 0.139 | 0.141 |
| NCI-H1355 | 0.612 | 0.668 |  | 0.601 | 0.702 | 0.597 | 0.227 | 0.235 | 0.138 | 0.111 | 1.17 | 1.1 | 0.404 | 0.3 | 0.389 | 0.293 | 0.281 | 0.234 | 0.152 |
| NCI-H1437 | 1.33 | 1.1 | 0.912 | 1.25 | 1.25 | 0.577 | 0.469 | 0.302 | 0.235 | 0.169 |  | 0.218 | 0.144 | 0.128 | 0.639 | 0.442 | 0.439 | 0.248 | 0.15 |
| NCI-H1650 | 0.201 | 0.197 |  | 0.192 | 0.211 | 0.379 | 0.414 | 0.242 | 0.195 | 0.0786 | 0.195 | 0.187 | 0.185 | 0.174 | 0.397 | 0.533 | 0.341 | 0.168 | 0.124 |
| NCI-H1651 | 1.08 | 0.897 |  | 0.8 | 0.948 | 0.609 | 0.537 | 0.402 | 0.122 | 0.116 | 1.05 | 0.873 | 0.464 | 0.406 | 0.623 | 0.509 | 0.324 | 0.146 | 0.131 |
| NCI-H1666 | 1.04 | 1.03 | 0.955 | 1 | 1.1 | 0.938 | 0.824 | 0.801 | 0.593 | 0.446 | 0.878 | 0.475 | 0.39 | 0.39 | 0.685 | 0.522 | 0.559 | 0.476 | 0.454 |
| NCI-H1734 | 0.146 | 0.186 |  | 0.203 | 0.23 | 0.751 | 0.236 |  | 0.117 | 0.107 | 0.853 | 1.06 | 0.723 | 0.494 | 0.495 | 0.353 | 0.215 | 0.147 | 0.122 |
| NCI-H1755 | 0.546 | 0.829 | 0.399 | 0.536 | 0.486 | 0.555 | 0.477 | 0.223 | 0.189 | 0.218 | 0.975 | 0.442 | 0.397 | 0.311 | 0.757 | 0.634 | 0.483 | 0.336 | 0.133 |
| NCI-H1915 | 1.07 | 0.883 |  | 0.909 | 0.813 | 0.452 | 0.178 | 0.148 | 0.0885 | 0.0702 | 0.717 | 1 | 0.915 | 0.765 | 0.268 | 0.227 | 0.186 | 0.126 | 0.0975 |
| NCI-H1975 | 0.189 | 0.205 | 0.159 | 0.174 | 0.267 | 0.297 | 0.232 | 0.218 | 0.146 | 0.105 | 0.472 | 0.3 | 0.214 | 0.17 | 0.255 | 0.206 | 0.184 | 0.15 | 0.131 |
